Data published in patent US20120195856A1, “Method of treating patients with cardiovascular illness” (priority 2011, published 2012).
Read-outs that look alike come from different tables or passages of the source. Values belong to the compound of their own block, whether it stands above or below them.

Tests used:
[1] = parameters: species or system human; details: in vivo
Text: The use of the antiviral drug is not useful for a longer period, as the remission period begins for the patient and the drug is ineffective.

[2] = Patient M.
[3] = format: in vivo, human
Text: Example 1. Patient, came to the clinic with a diagnosis of ischemic heart disease. Exertional angina, functional class III. Postinfarction cardiosclerosis (myocardial infarction in 1981). Atherosclerosis of the coronary arteries. Circulatory deficiency stage IIA. Cerebral atherosclerosis. Chronic cerebral impairment. Symptomatic hypertension. At arrival, complained of a squeezing pain in the area of the heart with radiation to the right hand, which arise both at rest and during physical activity (up to 4-5 times per day) and were relieved by taking nitroglycerin (up to 8 times per day), as well as shortness of breath while walking, vertigo, periodic headaches, ringing in the ears, irritability, and insomnia. The patient was prescribed treatment: anti-angina drugs (Nitrosorbidum 30 mg/day, Corinfar 30 mg/day; also has hypotensive activity), and Valacyclovir 2 tablets (1.0 g) three times a day. […] The atherogenesis index fell from 4.74 to 3.38, and there was an increase in cholesterol/HDL from 1.17 mmol/l to 1.20 mmol/l. During the treatment process, a slowing in the free-radical acidization of lipids was seen; the content of serum malondialdehyde fell from 0.50 mcmol/ml to 0.31 mcmol/ml, diethynoid conjugates fell from 1.332 mcmol/ml to 0.70 mcmol/ml, triethynoid conjugates declined from 0.23 mcmol/ml to 0.14 mcmol/ml; the a-tocopherol content recovered from 2.69 mcmol/ml to 4.32 mcmol/ml; the glutathione reductase activity went from 12.4 mcmol/l h to 22.0 mcmol/l h. On the electrocardiogram, a decrease in the T index from 35.0 to 0, in the SST from 11.0 to 0, and in the NST from 10.0 to 0 were seen. […] Angina pain and shortness of breath not present; nitroglycerine tablets not used. Vertigo and headaches had decreased.
Thus in the process of treatment, in the patient who took Valacyclovir, lipidogram, peroxide acidization of lipids, electrocardiography, and tetrapolar rheography indicators normalized. Valacyclovir side effects were not observed.

[4] = Example 4: patient with ischemic heart disease, lipid and liver complexes after Zocor and then combination anti-viral therapy; format: in vivo, human; details: after six months of Zocor 20 mg/day, goal indicator 4.0

long-term remission of the illness or substantial positive stabilization of the patient's condition [1]: does not provide long-term remission
SMILES: Nc1nc2c(ncn2COCCO)c(=O)[nH]1 [Acyclovir]

long-term remission of the illness or substantial positive stabilization of the patient's condition [1]: does not provide long-term remission
SMILES: CC(C)[C@H](N)C(=O)OCCOCn1cnc2c(=O)[nH]c(N)nc21 [Valacyclovir]
total cholesterol ([2]; after Valacyclovir 1.0 g 3×/day for 3 courses of 7 days, with standard treatment, goal value 5.0): 4.7 mmol/L
serum malondialdehyde content ([3]; after Valacyclovir 1.0 g three times a day + anti-angina drugs, before 0.50): 0.31 mcmol/ml
LDL in blood serum ([3]; after Valacyclovir 1.0 g three times a day + anti-angina drugs, before 1.55): 0.47 mmol/L
cholesterol/LDL in blood serum ([3]; after Valacyclovir 1.0 g three times a day + anti-angina drugs, before 3.99): 3.68 mmol/L
electrocardiogram NST ([3]; after Valacyclovir 1.0 g three times a day + anti-angina drugs, before 10.0): 0
electrocardiogram SST ([3]; after Valacyclovir 1.0 g three times a day + anti-angina drugs, before 11.0): 0
electrocardiogram T index ([3]; after Valacyclovir 1.0 g three times a day + anti-angina drugs, before 35.0): 0
side effects ([3]; human, in vivo): not observed
lipidogram, peroxide acidization of lipids, electrocardiography, and tetrapolar rheography indicators ([3]; in the process of treatment, patient who took Valacyclovir): normalized
vertigo and headaches ([3]; within seven weeks, Valacyclovir 1.0 g three times a day + anti-angina drugs): decreased
use of nitroglycerine tablets ([3]; within seven weeks, before up to 8 times per day): not used

SMILES: CCC(C)(C)C(=O)O[C@H]1C[C@@H](C)C=C2C=C[C@H](C)[C@H](CC[C@@H]3C[C@@H](O)CC(=O)O3)[C@H]21 [simvastatin]
total cholesterol ([2]; after six months of simvastatin 10 mg/day, goal indicator 5.0): 4.9 mmol/L
total cholesterol [4]: 3.9 mmol/L
